≈ marks a conversion by molar mass, not a printed value.
Tests used:
[1] = target: RNA polymerase of Escherichia coli (Escherichia coli, UniProt P0A8V2); test: inhibition of the RNA polymerase of Escherichia coli in vitro; type: biochemical; details: not achieved even with 100 μg/ml
From the text: The antibiotic action is ascertained, for example, on the one hand in vitro by determining the mean effective concentration EC50 for the inhibition of the RNA polymerase of Escherichia coli and by determining the minimum inhibitory concentration MIC in a conventional plate test, and on the other hand in vivo, using infected mice and rats, by determining the ED50 (effective dose that ensures the survival of 50% of the experimental animals). There are used as micro-organisms for the present purpose especially Mycobacterium tuberculosis TB H37 Rv and Staphylococcus aureus. In the case of compounds having a lipid-reducing indication, an antibiotic activity is regarded as disadvantageous since it can result in the formation of strains of micro-organisms that are resistant to antibiotics, especially when the compounds are administered over a prolonged period.

[2] = tested on: Staphylococcus aureus; test: in vivo antibiotic action in mice infected with Staphylococcus aureus; details: single dose of 200 mg/kg
[3] = tested on: Staphylococcus aureus; test: minimum inhibitory concentration in a conventional plate test; type: cell-based; details: read-out: MIC for various pathogenic strains of Staphylococcus aureus
[4] = tested on: Mycobacterium tuberculosis TB H37 Rv and Staphylococcus aureus; test: antibiotic action, in vitro and in vivo tests as a whole
[5] = tested on: serum lipoproteins (VLDL, LDL and HDL); test: reduction of serum lipoproteins (VLDL, LDL and HDL) in genetically hypercholesterolaemic rats (procedure A) and normolipaemic rats (procedure B); type: in vivo; details: repeated administration of 30 mg/kg daily, oral
Protocol: In contrast, the diacyl compounds of the present invention have, if at all, only a marginal antibiotic action.
Albino rats having a body weight of from 180 to 240 g and having free access to normal rat food and drinking water are used, Sprague Dawley derivatives of the strain Tif:RAI in procedure A and animals of the Wistar strain IVa-WI in procedure B. The test compound is administered orally in a polyethylene glycol solution (average molecular weight 400) to groups of from 8 to 10 rats, in procedure A once daily at 8 a.m. for three consecutive days and twice, at 8 a.m. and 4 p.m., on the fourth day, and in the case of procedure B, daily for 5 consecutive days. In experiment A the animals are sacrificed 16 hours, and in experiment B two hours, after the final administration by bleeding from the neck under anaesthesia with ether. The animals are given no food during the 16 hours before they are sacrificed. […] The serum lipoproteins are separated using an unltracentrifuge by means of 24-hour centrifugation at 78,000 g, 78,000 g and 109,000 g in salt solutions having densities of 1.006, 1.040 and 1.21, respectively, and are analysed enzymatically for their content of cholesterol and triglycerides using the test systems supplied, for example, by Miles (Lausanne, Switzerland) and Bohringer (Mannheim, Federal Republic of Germany).

RNA polymerase of Escherichia coli, sequence (P0A8V2 whole entry): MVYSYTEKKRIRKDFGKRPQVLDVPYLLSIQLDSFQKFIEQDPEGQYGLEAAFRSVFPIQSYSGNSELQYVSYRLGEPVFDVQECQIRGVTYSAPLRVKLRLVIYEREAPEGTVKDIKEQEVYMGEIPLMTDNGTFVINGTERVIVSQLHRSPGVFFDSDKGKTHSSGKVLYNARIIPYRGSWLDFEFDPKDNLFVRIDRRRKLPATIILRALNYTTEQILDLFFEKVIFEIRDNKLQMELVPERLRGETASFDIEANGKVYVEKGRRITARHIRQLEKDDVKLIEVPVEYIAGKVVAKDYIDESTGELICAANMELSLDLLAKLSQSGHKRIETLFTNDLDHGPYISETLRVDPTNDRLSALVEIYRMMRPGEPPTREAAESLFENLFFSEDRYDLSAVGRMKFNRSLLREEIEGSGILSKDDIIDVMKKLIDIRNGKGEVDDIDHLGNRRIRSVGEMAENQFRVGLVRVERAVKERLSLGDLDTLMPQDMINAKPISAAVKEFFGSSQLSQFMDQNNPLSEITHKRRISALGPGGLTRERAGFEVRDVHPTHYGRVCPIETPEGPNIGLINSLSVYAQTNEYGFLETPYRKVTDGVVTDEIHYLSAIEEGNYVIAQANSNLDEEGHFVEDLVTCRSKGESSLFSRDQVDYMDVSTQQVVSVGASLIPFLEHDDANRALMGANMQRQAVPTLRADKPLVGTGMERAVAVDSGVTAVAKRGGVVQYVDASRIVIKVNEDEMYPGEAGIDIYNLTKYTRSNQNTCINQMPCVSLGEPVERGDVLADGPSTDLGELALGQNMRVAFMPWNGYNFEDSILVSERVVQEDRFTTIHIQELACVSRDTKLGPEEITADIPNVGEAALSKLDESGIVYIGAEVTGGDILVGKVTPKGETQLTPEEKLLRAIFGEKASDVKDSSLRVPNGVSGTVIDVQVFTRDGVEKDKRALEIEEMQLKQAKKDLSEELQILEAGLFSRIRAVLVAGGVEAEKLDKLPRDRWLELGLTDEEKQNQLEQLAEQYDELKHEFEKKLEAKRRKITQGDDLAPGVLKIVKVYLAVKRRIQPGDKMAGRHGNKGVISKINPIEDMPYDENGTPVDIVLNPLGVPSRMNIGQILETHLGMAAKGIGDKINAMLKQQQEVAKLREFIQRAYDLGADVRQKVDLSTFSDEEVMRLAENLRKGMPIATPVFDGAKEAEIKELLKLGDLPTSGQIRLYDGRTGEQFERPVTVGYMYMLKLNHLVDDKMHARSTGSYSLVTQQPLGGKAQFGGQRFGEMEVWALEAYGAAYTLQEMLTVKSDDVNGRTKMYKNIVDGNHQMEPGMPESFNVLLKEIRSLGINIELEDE
RNA polymerase of Escherichia coli, sequence (P0A8T7 whole entry partner): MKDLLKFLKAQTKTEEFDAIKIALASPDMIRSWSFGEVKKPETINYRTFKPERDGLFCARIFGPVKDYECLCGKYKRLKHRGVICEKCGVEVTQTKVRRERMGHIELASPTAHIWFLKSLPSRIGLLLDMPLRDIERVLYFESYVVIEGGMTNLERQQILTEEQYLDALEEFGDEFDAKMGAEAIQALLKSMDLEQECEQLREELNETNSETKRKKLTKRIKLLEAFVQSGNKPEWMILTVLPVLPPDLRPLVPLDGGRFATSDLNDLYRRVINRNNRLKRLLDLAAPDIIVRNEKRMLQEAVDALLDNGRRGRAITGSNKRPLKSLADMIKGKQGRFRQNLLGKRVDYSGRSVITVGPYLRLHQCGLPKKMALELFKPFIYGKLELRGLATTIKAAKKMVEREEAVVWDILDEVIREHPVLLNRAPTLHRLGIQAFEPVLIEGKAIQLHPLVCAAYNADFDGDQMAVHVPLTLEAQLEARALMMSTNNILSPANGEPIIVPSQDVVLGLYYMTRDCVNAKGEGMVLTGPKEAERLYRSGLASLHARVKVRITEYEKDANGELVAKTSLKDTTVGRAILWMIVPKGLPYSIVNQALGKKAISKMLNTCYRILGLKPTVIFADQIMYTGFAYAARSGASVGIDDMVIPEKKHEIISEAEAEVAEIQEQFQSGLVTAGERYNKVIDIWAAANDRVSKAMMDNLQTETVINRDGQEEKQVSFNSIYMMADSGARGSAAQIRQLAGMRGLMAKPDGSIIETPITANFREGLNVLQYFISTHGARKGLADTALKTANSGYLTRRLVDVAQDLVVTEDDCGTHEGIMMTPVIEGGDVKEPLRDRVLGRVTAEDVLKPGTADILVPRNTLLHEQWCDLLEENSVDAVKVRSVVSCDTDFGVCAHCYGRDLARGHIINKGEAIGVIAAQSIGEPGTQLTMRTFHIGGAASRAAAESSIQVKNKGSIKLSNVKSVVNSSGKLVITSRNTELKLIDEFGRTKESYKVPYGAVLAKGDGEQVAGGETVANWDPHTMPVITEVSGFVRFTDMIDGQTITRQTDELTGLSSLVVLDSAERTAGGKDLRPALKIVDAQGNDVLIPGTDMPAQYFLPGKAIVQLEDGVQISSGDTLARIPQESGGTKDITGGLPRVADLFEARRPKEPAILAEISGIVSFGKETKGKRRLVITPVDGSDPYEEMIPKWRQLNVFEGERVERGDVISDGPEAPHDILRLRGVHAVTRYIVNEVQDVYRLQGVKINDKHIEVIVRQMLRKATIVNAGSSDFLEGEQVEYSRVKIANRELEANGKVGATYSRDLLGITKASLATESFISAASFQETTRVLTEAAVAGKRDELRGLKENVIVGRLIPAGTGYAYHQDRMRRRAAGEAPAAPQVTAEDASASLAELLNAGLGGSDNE
RNA polymerase of Escherichia coli, sequence (P0A7Z4 whole entry partner): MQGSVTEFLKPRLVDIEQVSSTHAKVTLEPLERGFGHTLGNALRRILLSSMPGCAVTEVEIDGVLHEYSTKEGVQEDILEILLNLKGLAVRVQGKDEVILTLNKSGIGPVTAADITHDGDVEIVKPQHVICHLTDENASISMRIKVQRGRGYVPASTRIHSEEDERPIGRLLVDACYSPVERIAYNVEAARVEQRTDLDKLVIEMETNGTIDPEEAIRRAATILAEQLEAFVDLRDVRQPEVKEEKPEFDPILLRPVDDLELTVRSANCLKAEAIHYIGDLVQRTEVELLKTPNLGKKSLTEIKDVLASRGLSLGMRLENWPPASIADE
RNA polymerase of Escherichia coli, sequence (P0A800 2-91 partner limits assumed): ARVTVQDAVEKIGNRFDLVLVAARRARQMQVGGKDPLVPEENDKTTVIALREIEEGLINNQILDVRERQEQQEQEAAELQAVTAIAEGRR

`COC1C=COC2(C)Oc3c(C)c(OC(=O)C(C)(C)C)c4c(c3C2=O)C(=O)C(N2CCN(Cc3c(C)cc(C)cc3C)CC2)=C(C4=O)N(C(=O)C(C)(C)C)C(=O)C(C)=CC=CC(C)C(O)C(C)C(O)C(C)C(OC(C)=O)C1C` (stereo not drawn) [8-O,N-dipivaloyl-3-[4-(2,4,6-trimethylbenzyl)-1-piperazinyl]-rifamycin S] was tested. Which EC50 [1] did it give?
The EC50 was > 92.6 µM.

What about the “antibiotic activity in vivo” value [2] of the same compound?
The value was “antibiotically inactive”.

What about the MIC [3] of the same compound?
Its MIC is ~64 µg/mL (≈ 59.2 µM).

And the antibiotic activity ([4]; overall statement)?
The antibiotic activity was “practically no antibiotic activity”.

And the “EC50 and MIC values relative to concentrations normally necessary for a corresponding effect” value ([4]; refers to RNA polymerase EC50 and Staphylococcus aureus MIC)?
The value was “approximately 1000 times”.

And the “reduction in the "LDL fraction"” value [5]?
Its value is 50-70%.

From patent publication US4916126A, “Diacyl derivatives of 4-(trialkylbenzyl)-piperazinyl compounds” (Ciba-Geigy Corporation, priority 1988, dated 1990)
